The text below walks through data of patent US20250197424A1, “QUINOLINE COMPOUND AND USE THEREOF” (SHANGHAI PHARMACEUTICALS HOLDING CO., LTD., priority 2022, published 2025).

Structures are written as SMILES. Where a name gives a salt, the structure may show the parent alone.

In this test the target is GTP-KRAS-G12D:SOS1 (Homo sapiens (Human), UniProt P01116, G12D). Kind of test: GTP-KRAS-G12D:SOS1 binding inhibition. The procedure: The IC50 of the compounds was fitted using a nonlinear regression equation with GraphPad Prism 8. The results are presented in Table 2: • Negative control: DMSO • Positive control: 100 μM BI-2852
Chain of GTP-KRAS-G12D:SOS1 (P01116-2 other isoform, or with tags, fused parts or gaps G12D): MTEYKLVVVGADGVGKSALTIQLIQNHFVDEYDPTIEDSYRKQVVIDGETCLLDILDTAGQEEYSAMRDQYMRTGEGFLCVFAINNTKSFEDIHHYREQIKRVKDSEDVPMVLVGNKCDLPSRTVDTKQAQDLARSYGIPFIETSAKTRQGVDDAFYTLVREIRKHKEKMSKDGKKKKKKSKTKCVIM
The following nonlinear fitting formula was used to obtain the IC50 (half-maximal inhibitory concentration) of the compounds:
[formula] • X: logarithm of the compound concentration • Y: 665/615 Ratio
The compound `CCc1cccc2cc(O)cc(-c3c(F)c4c5c(nc(OC[C@]67C[C@@H](F)CN6C[C@@H](COC)C7)nc5c3F)N3CC5CCC(N5)C3CO4)c12` (single isomer, unassigned) [Compound 18a, 4-((2R or 2S, 5aS,6S,9R)-1,3-Difluoro-13-(((2R,6S,7aS)-2-fluoro-6-(methoxymethyl)tetrahydro-1H-pyrrolizin-7a(5H)-yl)methoxy)-5a,6,7,8,9,10-hexahydro-5H-6,9-epiminoazepino[2′,1′:3,4][1,4]oxazepino[5,6,7-de]quinazolin-2-yl)-5-ethylnaphthalen-2-ol dihydrochloride] gave an IC50 of 1940 nM.
The value for `CCc1cccc2cc(O)cc(-c3c(F)c4c5c(nc(OC[C@@]67CCC8(CC8)N6C[C@H](F)C7)nc5c3F)N3CC5CCC(N5)C3CO4)c12` (single isomer, unassigned) [Compound 20b, 4-((2S or 2R,5aS,6S,9R)-1,3-difluoro-13-(((6′R,7a'S)-6′-fluorotetrahydrospiro[cyclopropane-1,3′-pyrrolizin]-7a′ (5′H)methoxy)-5a,6,7,8,9,10-hexahydro-5H-[6,9]epiminoazepino[2′,1′:3,4][1,4]oxazepino[5,6,7-de]quinazolin-2-yl)-5-ethylnaphthalen-2-oldihydrochloride] was 8.81 nM.
`CCc1cccc2cc(O)cc(-c3c(F)c4c5c(nc(OC[C@]67C[C@@H](F)CN6C[C@H](CO)C7)nc5c3F)N3CC5CCC(N5)C3CO4)c12` (single isomer, unassigned) [Compound 21a, 4-((2R or 2S, 5aS,6S,9R)-1,3-Difluoro-13-(((2R,6R,7aS)-2-fluoro-6-(hydroxymethyl)tetrahydro-1H-pyrrolizin-7a(5H)-yl)methoxy)-5a,6,7,8,9,10-hexahydro-5H-6,9-epiminoazepino[2′,1′:3,4][1,4]oxazepino[5,6,7-de]quinazolin-2-yl)-5-ethylnaphthalen-2-ol dihydrochloride] displayed an IC50 of 7220 nM.
The compound `CCc1cccc2cc(O)cc(-c3c(F)c4c5c(nc(OC[C@]67C[C@@H](F)CN6C[C@H](CO)C7)nc5c3F)N3CC5CCC(N5)C3CO4)c12` (single isomer, unassigned) [Compound 21b, 4-((2S or 2R,5aS,6S,9R)-1,3-difluoro-13-(((2R,6R,7aS)-2-fluoro-6-(hydroxymethyl)tetrahydro-1H-pyrrolizin-7a(5H)-yl)methoxy)-5a,6,7,8,9,10-hexahydro-5H-6,9-epiminoazepino[2′,1′:3,4][1,4]oxazepino[5,6,7-de]quinazolin-2-yl)-5-ethylnaphthalen-2-ol dihydrochloride] came in with an IC50 of 7.21 nM.
Next, `CCc1cccc2cc(O)cc(-c3c(F)c4c5c(nc(OC[C@]67C[C@@H](F)CN6C[C@@H](CO)C7)nc5c3F)N3CC5CCC(N5)C3CO4)c12` (single isomer, unassigned) [Compound 23a, 4-((2R or 2S, 5aS,6S,9R)-1,3-Difluoro-13-(((2R,6S,7aS)-2-fluoro-6-(hydroxymethyl)tetrahydro-1H-pyrrolizin-7a(5H)-yl)methoxy)-5a,6,7,8,9,10-hexahydro-5H-6,9-epiminoazepino[2′,1′:3,4][1,4]oxazepino[5,6,7-de]quinazolin-2-yl)-5-ethylnaphthalen-2-ol dihydrochloride]: 3690 nM; `CCc1cccc2cc(O)cc(-c3c(F)c4c5c(nc(OC[C@]67C[C@@H](F)CN6C[C@@H](CO)C7)nc5c3F)N3CC5CCC(N5)C3CO4)c12` (single isomer, unassigned) [Compound 23b, 4-((2S or 2R,5aS,6S,9R)-1,3-difluoro-13-(((2R,6S,7aS)-2-fluoro-6-(hydroxymethyl)tetrahydro-1H-pyrrolizin-7a(5H)-yl)methoxy)-5a,6,7,8,9,10-hexahydro-5H-6,9-epiminoazepino[2′,1′:3,4][1,4]oxazepino[5,6,7-de]quinazolin-2-yl)-5-ethylnaphthalen-2-ol dihydrochloride]: 5.75 nM.
`Cc1cc(N)nc(-c2c(F)c3c4c(nc(OC[C@@]56CCCN5C[C@H](F)C6)nc4c2F)N2C[C@@H]4CCC(N4)[C@@H]2CCO3)c1C(F)(F)F` (single isomer, unassigned) [Compound 26a, 6-((2S or 2R,6aS,7S,10R)-1,3-Difluoro-14-(((2R,7aS)-2-fluorotetrahydro-1H-pyrrolizin-7a(5H)-yl)methoxy)-5,6,6a,7,8,9,10,11-octahydro-7,10-epiminoazepino[1′,2′: 5,6][1,5]oxazocino[4,3,2-de]quinazolin-2-yl)-4-methyl-5-(trifluoromethyl)pyridin-2-amine] came in with an IC50 of 247 nM.
With `Cc1cc(N)nc(-c2c(F)c3c4c(nc(OC[C@@]56CCCN5C[C@H](F)C6)nc4c2F)N2C[C@@H]4CCC(N4)[C@H]2CCO3)c1C(F)(F)F` (single isomer, unassigned) [Compound 26b, 6-((2R or 2S, 6aS,7S,10R)-1,3-difluoro-14-(((2R,7aS)-2-fluorotetrahydro-1H-pyrrolizin-7a(5H)-yl)methoxy)-5,6,6a,7,8,9,10,11-octahydro-7,10-epiminoazepino[1′,2′: 5,6][1,5]oxazocino[4,3,2-de]quinazolin-2-yl)-4-methyl-5-(trifluoromethyl)pyridin-2-amine], the concentration for half-maximal inhibition (IC50) is 15.7 nM. Compared with the last compound, the IC50 is about 16-fold lower.
The value for `CCc1cccc2cc(O)cc(-c3c(F)c4c5c(nc(OC[C@]67C[C@@H](F)CN6C[C@@H](CN6CCCCC6)C7)nc5c3F)N3CC5CCC(N5)C3CO4)c12` (single isomer, unassigned) [Compound 27b, 4-((2S or 2R,5aS,6S,9R)-1,3-difluoro-13-(((2R,6R,7aS)-2-fluoro-6-(piperidin-1-ylmethyl)tetrahydro-1H-pyrrolizin-7a(5H)-yl)methoxy)-5a,6,7,8,9,10-hexahydro-5H-6,9-epiminoazepino[2′,1′:3,4][1,4]oxazepino[5,6,7-de]quinazolin-2-yl)-5-ethylnaphthalen-2-ol trihydrochloride] was 17.2 nM; that for `CCc1cccc2cc(O)cc(-c3c(F)c4c5c(nc(OC[C@]67C[C@@H](F)CN6C[C@@H](CN6CCOCC6)C7)nc5c3F)N3CC5CCC(N5)C3CO4)c12` (single isomer, unassigned) [Compound 28a, 4-((2R or 2S, 5aS,6S,9R)-1,3-Difluoro-13-(((2R,6R,7aS)-2-fluoro-6-(morpholinomethyl)tetrahydro-1H-pyrrolizin-7a(5H)-yl)methoxy)-5a,6,7,8,9,10-hexahydro-5H-6,9-epiminoazepino[2′,1′:3,4][1,4]oxazepino[5,6,7-de]quinazolin-2-yl)-5-ethylnaphthalen-2-ol trihydrochloride] was 5300 nM; that for `CCc1cccc2cc(O)cc(-c3c(F)c4c5c(nc(OC[C@]67C[C@@H](F)CN6C[C@@H](CN6CCOCC6)C7)nc5c3F)N3CC5CCC(N5)C3CO4)c12` (single isomer, unassigned) [Compound 28b, 4-((2S or 2R,5aS,6S,9R)-1,3-difluoro-13-(((2R,6R,7aS)-2-fluoro-6-(morpholinomethyl)tetrahydro-1H-pyrrolizin-7a(5H)-yl)methoxy)-5a,6,7,8,9,10-hexahydro-5H-6,9-epiminoazepino[2′,1′:3,4][1,4]oxazepino[5,6,7-de]quinazolin-2-yl)-5-ethylnaphthalen-2-ol trihydrochloride] was 15.2 nM.
`CCc1cccc2cc(O)cc(-c3c(F)c4c5c(nc(OC[C@]67C[C@@H](F)CN6C[C@@H](CN6CCN(C)CC6)C7)nc5c3F)N3CC5CCC(N5)C3CO4)c12` (single isomer, unassigned) [Compound 29b, 4-((2R or 2S, 5aS,6S,9R)-1,3-difluoro-13-(((2R,6R,7aS)-2-fluoro-6-((4-methylpiperazin-1-yl)methyl)tetrahydro-1H-pyrrolizin-7a(5H)-yl)methoxy)-5a,6,7,9,10-hexahydro-5H-6,9-epiminoazepino[2′,1′:3,4][1,4]oxazepino[5,6,7-de]quinazolin-2-yl)-5-ethylnaphthalen-2-ol tetrahydrochloride] had an IC50 of 15.7 nM.
`COc1ccc(-c2cc[nH]n2)c(-c2c(F)c3c4c(nc(OC[C@@]56CCCN5C[C@H](F)C6)nc4c2F)N2CC4CCC(N4)C2CO3)c1` (stereo partly drawn) [Compound 17, (5aS,6S,9R)-1,3-Difluoro-13-(((2R,7aS)-2-fluorotetrahydro-1H-pyrrolizin-7a(5H)-yl)methoxy)-2-(5-methoxy-2-(1H-pyrazol-3-yl)phenyl)-5a,6,7,8,9,10-hexahydro-5H-6,9-epiminoazepino[2′,1′:3,4][1,4]oxazepino[5,6,7-de]quinazoline dihydrochloride] showed an IC50 of 8310 nM.
The value for `Nc1nc2c(-c3c(F)c4c5c(nc(OC[C@@]67CCCN6C[C@H](F)C7)nc5c3F)N3CC5CCC(N5)C3CO4)ccc(F)c2s1` (stereo partly drawn) [Compound 19, 4-((5aS,6S,9R)-1,3-Difluoro-13-(((2R,7aS)-2-fluorotetrahydro-1H-pyrrolizin-7a(5H)-yl)methoxy)-5a,6,7,8,9,10-hexahydro-5H-6,9-epiminoazepino[2′,1′:3,4][1,4]oxazepino[5,6,7-de]quinazolin-2-yl)-7-fluorobenzo[d]thiazol-2-amine dihydrochloride] was 12.7 nM.
In turn, `Nc1cc2ccccc2c(-c2c(F)c3c4c(nc(OC[C@@]56CCCN5C[C@H](F)C6)nc4c2F)N2CC4CCC(N4)C2CO3)n1` (stereo partly drawn) [Compound 22, 1-((5aS,6S,9R)-1,3-Difluoro-13-(((2R,7aS)-2-fluorotetrahydro-1H-pyrrolizin-7a(5H)-yl)methoxy)-5a,6,7,8,9,10-hexahydro-5H-6,9-epiminoazepino[2′,1′:3,4][1,4]oxazepino[5,6,7-de]quinazolin-2-yl) isoquinolin-3-amine] came in with a concentration for half-maximal inhibition (IC50) of 13.4 nM. This IC50 and that of the compound before are within 1.5-fold of each other.
With `Oc1ccc(-c2cc[nH]n2)c(-c2c(F)c3c4c(nc(OC[C@@]56CCCN5C[C@H](F)C6)nc4c2F)N2CC4CCC(N4)C2CO3)c1` (stereo partly drawn) [Compound 24, 3-((5aS,6S,9R)-1,3-Difluoro-13-(((2R,7aS)-2-fluorotetrahydro-1H-pyrrolizin-7a(5H)-yl)methoxy)-5a,6,7,8,9,10-hexahydro-5H-6,9-epiminoazepino[2′,1′:3,4][1,4]oxazepino[5,6,7-de]quinazolin-2-yl)-4-(1H-pyrazol-3-yl) phenol dihydrochloride], the IC50 came out at 2070 nM.

The term IC50 denotes the concentration needed to halve the response being measured. A high value points to a need for much substance.
